Test results taken from patent publication US20210236476A1, “METHODS OF TREATING CANCER WITH SMALL MOLECULE PD-L1 INHIBITORS” (CHEMOCENTRYX, INC., priority 2018, published 2021).

molecular target: T1, human PD-L1 / human PD-1 interaction (Homo sapiens, UniProt Q9NZQ7); experiment: ELISA of PD-1/PD-L1 interaction; assay type: binding
T1 construct: purchased R&D (PD-L1); ACRO Biosystems (PD-1, biotin)
Experimental: The activity of Compound 1.041 was assessed with an ELISA assay assessing the direct binding of recombinant PD-1 and PD-L1 proteins (FIG. 1A), a dimerization ELISA assay assessing the direct binding/dimerization of recombinant PD-L1 proteins (FIG. 1B), a cell based assay measuring the downstream signaling following the interaction of PD-1 and PD-L1 using a Luciferase reporter assay with cell lines overexpressing PD-1 and PD-L1 (FIG. 1C), and a mixed lymphocyte reaction assay measuring the functional outcome of upregulation of IFNg secretion, using allogenic primary human immune cells (FIG. 1D). Briefly, the mixed lymophocyte reaction assay was performed as follows: Dendritic cells and CD4+T Cells from unmatched donors were cultured together for 5 days in 96 well-flat bottom plates. Test compound was added as indicated at starting concentration of 1 μM with 1:4 dilutions with DMSO. Supernatants were harvested after 5 days of incubation and detection of human IFNg was performed by ELISA. […]
96 Well plates were coated with 1 μg/mL of human PD-L1 (obtained from R&D) in
PBS overnight at 4° C. The wells were then blocked with 2% BSA in PBS (WN) with 0.05% TWEEN-20 for 1 hour at 37° C. The plates were washed 3 times with PBS/0.05% TWEEN-20 and the compounds were serial diluted (1:5) in dilution medium and added to the ELISA plates. Human PD-1 and biotin 0.3μg/mL (ACRO Biosystems) were added and incubated for 1 hour at 37° C. then washed 3 times with PBS/0.05% TWEEN-20. A second block was performed with 2% BSA in PBS (WN)/0.05% TWEEN-20 for 10 min at 37° C. and was washed 3 times with PBS/0.05% TWEEN-20. Streptavidin—HRP was added for 1 hour at 37° C. then washed 3 times with PBS/0.05% TWEEN-20. TMB substrate was added and reacted for 20 min at 37° C. A stop solution (2 N aqueous H2SO4) was added. The absorbance was read at 450 nm using a micro-plate spectrophotometer.

T1 sequence (Q9NZQ7 19-239 limits assumed): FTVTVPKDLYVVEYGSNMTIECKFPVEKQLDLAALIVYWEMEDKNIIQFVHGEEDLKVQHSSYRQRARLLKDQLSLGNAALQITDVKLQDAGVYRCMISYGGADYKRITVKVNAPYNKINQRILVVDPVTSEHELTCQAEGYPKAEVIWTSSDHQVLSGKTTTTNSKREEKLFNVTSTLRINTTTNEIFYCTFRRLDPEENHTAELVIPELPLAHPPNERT

Row | SMILES | IC50
1 | CCOc1cc(O[C@H]2CCc3c(-c4cccc(OCCCN5CC[C@@H](O)C5)c4C)cccc32)c(Cl)cc1CNC(C)(CO)C(=O)O (some centres unmarked) | < 5 nM
2 | Cc1c(OCCCN2CCC[C@@H](O)C2)cccc1-c1cccc2c1CC[C@@H]2Oc1cc(OCc2cncc(C#N)c2)c(CN[C@H](C(=O)O)[C@@H](C)O)cc1Cl | < 5 nM
3 | Cc1c(OCCCN2CCC[C@H](O)C2)cccc1-c1cccc2c1CC[C@@H]2Oc1cc(OCc2cncc(C#N)c2)c(CN[C@H](C(=O)O)[C@@H](C)O)cc1Cl | < 5 nM
4 | Cc1c(OCCCN2CCC(O)CC2)cccc1-c1cccc2c1CC[C@@H]2Oc1cc(OCc2cc(C#N)cc(C#N)c2)c(CN[C@@](C)(CO)C(=O)O)cc1Cl | < 5 nM
5 | CCOC(=O)[C@](C)(CO)NCc1cc(Cl)c(O[C@H]2CCc3c(-c4cccc(OCCCN5CC(O)C5)c4Cl)cccc32)cc1OCc1cncc(C#N)c1 | < 5 nM
6 | CCOc1cc(O[C@H]2CCc3c(-c4cccc(OCCCN5CC(O)C5)c4Cl)cccc32)c(Cl)cc1CN[C@@](C)(CO)C(=O)O | < 5 nM
7 | CC(CO)(NCc1cc(Cl)c(O[C@H]2CCc3c(-c4cccc(OCCCN5CC(O)C5)c4Cl)cccc32)cc1OCc1cccnc1)C(=O)O (some centres unmarked) | < 5 nM
8 | CC(CO)(NCc1cc(Cl)c(O[C@H]2CCc3c(-c4cccc(OCCCN5CCCCC5)c4Cl)cccc32)cc1OCc1cncc(C#N)c1)C(=O)O (some centres unmarked) | < 5 nM
9 | CC(CO)(NCc1cc(Cl)c(O[C@H]2CCc3c(-c4cccc(OCCCN5CC(F)C5)c4Cl)cccc32)cc1OCc1cncc(C#N)c1)C(=O)O (some centres unmarked) | < 5 nM
10 | CC(CO)(NCc1cc(Cl)c(O[C@H]2CCc3c(-c4cccc(OCCCN5CC6(CC(O)C6)C5)c4Cl)cccc32)cc1OCc1cncc(C#N)c1)C(=O)O (some centres unmarked) | < 5 nM
11 | CC(CO)(NCc1cc(Cl)c(O[C@H]2CCc3c(-c4cccc(OCCCN5CC6(CC(F)C6)C5)c4Cl)cccc32)cc1OCc1cncc(C#N)c1)C(=O)O (some centres unmarked) | < 5 nM
12 | N#Cc1cncc(COc2cc(O[C@H]3CCc4c(-c5cccc(OCCCN6CC(O)C6)c5Cl)cccc43)c(Cl)cc2CN2CCCC3(C2)NC(=O)NC3=O)c1 (some centres unmarked) | < 5 nM
13 | C[C@@H](O)[C@H](NCc1cc(Cl)c(O[C@H]2CCc3c(-c4cccc(OCCCN5CC(O)C5)c4Cl)cccc32)cc1OCc1cncc(C#N)c1)C(=O)NS(C)(=O)=O | < 5 nM
14 | N#Cc1cncc(COc2cc(O[C@H]3CCc4c(-c5cccc(OCCCN6CC(O)C6)c5Cl)cccc43)c(Cl)cc2CN2CC(O)C2)c1 | < 5 nM
15 | N#Cc1cncc(COc2cc(O[C@H]3CCc4c(-c5cccc(OCCCN6CC(O)C6)c5Cl)cccc43)c(Cl)cc2CN2CCC(O)CC2)c1 | < 5 nM
16 | C[C@@H](O)[C@H](NCc1cc(Cl)c(O[C@H]2CCc3c(-c4cccc(OCCCN5CC(O)C5)c4Cl)cccc32)cc1OCc1cncc(C#N)c1)C(N)=O | < 5 nM

Row | SMILES | IC50
17 | Cc1c(OCCCN2CCC(F)CC2)cccc1-c1cccc2c1CC[C@@H]2Oc1cc(OCc2cncc(C#N)c2)c(CNC[C@@H]2CCC(=O)N2)cc1Cl | < 5 nM
18 | N#Cc1cncc(COc2cc(O[C@H]3CCc4c(-c5cccc(OCCCN6CC(O)C6)c5Cl)cccc43)c(Cl)cc2CNC[C@@H]2CCC(=O)N2)c1 | < 5 nM
19 | N#Cc1cncc(COc2cc(O[C@H]3CCc4c(-c5cccc(OCCCN6CC(O)C6)c5Cl)cccc43)c(Cl)cc2CN2CC3(CC(O)C3)C2)c1 | < 5 nM
20 | CC(C)(O)CNCc1cc(Cl)c(O[C@H]2CCc3c(-c4cccc(OCCCN5CC(O)C5)c4Cl)cccc32)cc1OCc1cncc(C#N)c1 | < 5 nM
21 | C[C@@H](O)[C@H](NCc1cc(Cl)c(O[C@H]2CCc3c(-c4cccc(OCCCN5CC(O)C5)c4Cl)cccc32)cc1OCc1cncc(C#N)c1)C(=O)O | < 5 nM
22 | N#Cc1cncc(COc2cc(O[C@H]3CCc4c(-c5cccc(OCCCN6CC(O)C6)c5Cl)cccc43)c(Cl)cc2CNCC(=O)O)c1 | < 5 nM
23 | CCCC(CO)(NCc1cc(Cl)c(O[C@H]2CCc3c(-c4cccc(OCCCN5CC(O)C5)c4Cl)cccc32)cc1OCc1cncc(C#N)c1)C(=O)O (some centres unmarked) | < 5 nM
24 | N#Cc1cncc(COc2cc(O[C@H]3CCc4c(-c5cccc(OCCCN6CCC(O)CC6)c5Cl)cccc43)c(Cl)cc2CNC[C@H]2CCC(=O)N2)c1 | < 5 nM
25 | N#Cc1cncc(COc2cc(O[C@H]3CCc4c(-c5cccc(OCCCN6CCC(F)CC6)c5Cl)cccc43)c(Cl)cc2CNC[C@H]2CCC(=O)N2)c1 | < 5 nM
26 | N#Cc1cncc(COc2cc(O[C@H]3CCc4c(-c5cccc(OCCCN6CCC(F)CC6)c5Cl)cccc43)c(Cl)cc2CN2CC[C@@H](O)C2)c1 | < 5 nM
27 | N#Cc1cncc(COc2cc(O[C@H]3CCc4c(-c5cccc(OCCCN6CCC(F)CC6)c5Cl)cccc43)c(Cl)cc2CN2CC[C@@H](F)C2)c1 | < 5 nM
28 | N#Cc1cncc(COc2cc(O[C@H]3CCc4c(-c5cccc(OCCCN6CC7(CC(O)C7)C6)c5Cl)cccc43)c(Cl)cc2CNC[C@@H]2CCC(=O)N2)c1 | < 5 nM
29 | N#Cc1cncc(COc2cc(O[C@H]3CCc4c(-c5cccc(OCCCN6CC7(CC(O)C7)C6)c5Cl)cccc43)c(Cl)cc2CNC[C@H]2CCC(=O)N2)c1 | < 5 nM
30 | N#Cc1cncc(COc2cc(O[C@H]3CCc4c(-c5cccc(OCCCN6CCCCC6)c5Cl)cccc43)c(Cl)cc2CNC[C@H]2CCC(=O)N2)c1 | < 5 nM
31 | N#Cc1cncc(COc2cc(O[C@H]3CCc4c(-c5cccc(OCCCN6CCCCC6)c5Cl)cccc43)c(Cl)cc2CNC[C@@H]2CCC(=O)N2)c1 | < 5 nM

The next lines start with the values.

Row | IC50 | SMILES
32 | < 5 nM | CCOc1cc(O[C@H]2CCc3c(-c4cccc(OCCCN5CC[C@@H](O)C5)c4C)cccc32)c(Cl)cc1CN[C@H](C(=O)O)[C@@H](C)O
33 | < 5 nM | C[C@@](CO)(NCc1cc(Cl)c(O[C@@H]2c3cccc(-c4cccc(OCCCN5CC(O)C5)c4Cl)c3C[C@@H]2F)cc1OCc1cncc(C#N)c1)C(=O)O
34 | < 5 nM | C[C@@](CO)(NCc1cc(Cl)c(O[C@@H]2c3cccc(-c4cccc(OCCCN5CC(F)C5)c4Cl)c3C[C@@H]2F)cc1OCc1cncc(C#N)c1)C(=O)O
35 | < 5 nM | CC(CO)(NCc1cc(Cl)c(O[C@H]2CCc3c(-c4cccc(OCCCN5CCOCC5)c4Cl)cccc32)cc1OCc1cncc(C#N)c1)C(=O)O (some centres unmarked)
36 | < 5 nM | C[C@@](CO)(NCc1cc(Cl)c(OC2CCc3c(-c4cccc(OCCCN5CC(O)C5)c4Cl)cc(F)cc32)cc1OCc1cncc(C#N)c1)C(=O)O (some centres unmarked)
37 | < 5 nM | N#Cc1cncc(COc2cc(O[C@H]3CCc4c(-c5cccc(OCCCN6CC(O)C6)c5Cl)cccc43)c(Cl)cc2CN[C@@H]2CCCC[C@@H]2O)c1
38 | < 5 nM | N#Cc1cncc(COc2cc(O[C@H]3CCc4c(-c5cccc(OCCCN6CCC(F)CC6)c5Cl)cccc43)c(Cl)cc2CNC[C@@H]2CCC(=O)N2)c1
39 | < 5 nM | N#Cc1cncc(COc2cc(O[C@H]3CCc4c(-c5cccc(OCCCN6CC(O)C6)c5Cl)cccc43)c(Cl)cc2CN2CC[C@@H](O)C2)c1
40 | < 5 nM | Cc1c(OCCCN2CCC(F)CC2)cccc1-c1cccc2c1CC[C@@H]2Oc1cc(OCc2cncc(C#N)c2)c(CNC[C@H]2CCC(=O)N2)cc1Cl
41 | < 5 nM | N#Cc1cncc(COc2cc(O[C@H]3CCc4c(-c5cccc(OCCCN6CCC(O)CC6)c5Cl)cccc43)c(Cl)cc2CNC[C@@H]2CCC(=O)N2)c1
42 | < 5 nM | CC1(O)CN(Cc2cc(Cl)c(O[C@H]3CCc4c(-c5cccc(OCCCN6CCC(F)CC6)c5Cl)cccc43)cc2OCc2cncc(C#N)c2)C1
43 | < 5 nM | CC1(O)CCN(Cc2cc(Cl)c(O[C@H]3CCc4c(-c5cccc(OCCCN6CCC(F)CC6)c5Cl)cccc43)cc2OCc2cncc(C#N)c2)CC1
44 | < 5 nM | N#Cc1cncc(COc2cc(O[C@H]3CCc4c(-c5cccc(OCCCN6CC7(CC(O)C7)C6)c5Cl)cccc43)c(Cl)cc2CN[C@@H]2CCCC[C@@H]2O)c1
